Values of other authors, collected in US12491200B2, “Compositions and methods using cannabinoids for treating stammering/stuttering and symptoms of Tourette syndrome” (priority 2019, dated 2025).

Tests used:
[1] = test system: developmental stuttering
[2] = test system: tic disorders; settings: for tic symptom score: compared with placebo; for most common adverse events: tic disorders
[3] = test system: Tourette syndrome; settings: patients aged between 16 and 19; very high doses

Row | Compound | speech fluency [1] | tic symptom score [2] | most common adverse events [2] | symptoms such as vocal blocking tics and comorbid conditions [3]
1 | Cc1nc2n(c(=O)c1CCN1CCC(c3noc4cc(F)ccc34)CC1)CCCC2 [risperidone] | improve speech fluency | significantly improve tic symptom score | drowsiness and appetite | –
2 | OCCOCCN1CCN(C2=Nc3ccccc3Sc3ccccc32)CC1 [quetiapine] | – | significantly improve tic symptom score | – | –
3 | CCN(CC)CCNC(=O)c1cc(S(C)(=O)=O)ccc1OC [tiapride] | – | – | dizziness, nausea, and dry mouth | –
4 | O=C(CCCN1CCC(O)(c2ccc(Cl)cc2)CC1)c1ccc(F)cc1 [haloperidol] | improve speech fluency | significantly improve tic symptom score | drowsiness, extrapyramidal reactions, and dry mouth | –
5 | CCCCCc1cc(O)c2c(c1)OC(C)(C)[C@@H]1CCC(C)=C[C@@H]21 [synthetic THC, delta-9-tetrahydrocannabinol] | – | – | – | significant improvement
6 | O=C1Cc2cc(CCN3CCN(c4nsc5ccccc45)CC3)c(Cl)cc2N1 [ziprasidone] | – | significantly improve tic symptom score | – | –
7 | O=C1CCc2ccc(OCCCCN3CCN(c4cccc(Cl)c4Cl)CC3)cc2N1 [aripiprazole] | – | significantly improve tic symptom score | dizziness, nausea, and dry mouth | –
8 | N[C@@H](Cc1ccc(O)c(O)c1)C(=O)O [levodopa] | worsening speech fluency | – | – | –
